Test results reported in ChEMBL document CHEMBL4406791, “Allosteric Modalities for Membrane-Bound Receptors: Insights from Drug Hunting for Brain Diseases” (J Med Chem, 2019).

Target: Metabotropic glutamate receptor 5 (Homo sapiens) (UniProt P41594)
Assay: Binding affinity to mGluR5 (unknown origin) assessed as association rate constant

Chain of Metabotropic glutamate receptor 5 (Homo sapiens) (P41594 21-1212 limits assumed): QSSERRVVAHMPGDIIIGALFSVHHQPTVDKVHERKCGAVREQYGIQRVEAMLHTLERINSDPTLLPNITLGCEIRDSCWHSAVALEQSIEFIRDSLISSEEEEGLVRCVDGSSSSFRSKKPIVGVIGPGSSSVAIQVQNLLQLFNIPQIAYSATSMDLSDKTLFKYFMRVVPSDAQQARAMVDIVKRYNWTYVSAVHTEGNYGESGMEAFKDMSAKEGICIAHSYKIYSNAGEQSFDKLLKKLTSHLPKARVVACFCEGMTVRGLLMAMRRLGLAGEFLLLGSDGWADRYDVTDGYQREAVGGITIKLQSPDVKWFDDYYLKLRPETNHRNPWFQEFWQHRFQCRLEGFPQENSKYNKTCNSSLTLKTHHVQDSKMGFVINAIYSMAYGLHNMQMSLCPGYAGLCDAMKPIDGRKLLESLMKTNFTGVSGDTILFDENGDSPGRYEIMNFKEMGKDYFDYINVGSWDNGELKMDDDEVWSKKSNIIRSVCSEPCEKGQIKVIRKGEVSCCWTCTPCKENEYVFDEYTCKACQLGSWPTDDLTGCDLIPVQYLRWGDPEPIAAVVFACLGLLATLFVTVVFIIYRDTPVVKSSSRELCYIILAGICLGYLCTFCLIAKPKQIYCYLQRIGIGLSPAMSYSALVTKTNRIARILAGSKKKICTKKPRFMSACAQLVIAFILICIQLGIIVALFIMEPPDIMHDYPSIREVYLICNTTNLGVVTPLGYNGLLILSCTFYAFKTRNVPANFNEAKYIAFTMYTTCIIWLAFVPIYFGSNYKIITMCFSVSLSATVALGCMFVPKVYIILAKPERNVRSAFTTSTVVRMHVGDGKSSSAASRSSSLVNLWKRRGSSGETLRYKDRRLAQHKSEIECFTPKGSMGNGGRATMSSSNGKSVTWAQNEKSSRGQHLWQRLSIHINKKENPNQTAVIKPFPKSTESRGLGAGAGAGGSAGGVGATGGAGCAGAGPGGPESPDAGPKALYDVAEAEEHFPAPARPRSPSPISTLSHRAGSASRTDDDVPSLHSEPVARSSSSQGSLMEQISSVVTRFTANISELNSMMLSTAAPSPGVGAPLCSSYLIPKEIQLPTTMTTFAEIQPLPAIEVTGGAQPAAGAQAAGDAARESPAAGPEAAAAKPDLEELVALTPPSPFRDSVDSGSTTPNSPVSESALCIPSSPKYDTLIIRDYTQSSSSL

O=C(Nc1ccc(-c2ccn3c(CC4CC4)nnc3c2C(F)(F)F)cc1)c1ccc(S(=O)(=O)F)cc1
K: 3.2 ×10³ /M/s
